Results reported in ChEMBL document CHEMBL1201862, “PubChem BioAssay data set” (2004).
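These data come from cells grown in 96-well plates and exposed to compound for 48 hours at five concentrations. GI50 marks 50% less growth.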 Calls of active or inactive are those of the source. No stated cut-off is given here; in the data, active = GI50 up to about 1.1 µM and inactive = higher.

Tests used:
Assay in all cases: DTP human tumour cell line panel, 48 h
SK-OV-3 = system: SK-OV-3
M14 = system: M14
HOP-92 = system: HOP-92
SW-620 = system: SW-620
SNB-19 = system: SNB-19
Hs-578T = system: Hs-578T
MCF7 = system: MCF7
K562 = system: K562
SF-268 = system: SF-268
SNB-75 = system: SNB-75
U-251 = system: U-251
MOLT-4 = system: MOLT-4
ACHN = system: ACHN
BT-549 = system: BT-549
786-0 = system: 786-0
SK-MEL-5 = system: SK-MEL-5
A498 = system: A498
PC-3 = system: PC-3
LOX IMVI = system: LOX IMVI
NCI-H522 = system: NCI-H522

Measured: GI50

COc1cc(COC(=O)NC(Cc2cccs2)C(=O)O)c([N+](=O)[O-])cc1OC (stereo not given)
inactive: SK-OV-3 > 100 µM | M14 > 100 µM | HOP-92 > 100 µM | SW-620 > 100 µM | SNB-19 > 100 µM | Hs-578T > 100 µM | MCF7 > 100 µM | K562 > 100 µM | SF-268 > 100 µM | SNB-75 59.2 µM | U-251 > 100 µM | MOLT-4 > 100 µM | ACHN > 100 µM | BT-549 > 100 µM | 786-0 > 100 µM | SK-MEL-5 > 100 µM | A498 39.3 µM | PC-3 > 100 µM

O=C(NC(=S)Nc1ccc2c(c1)Sc1ccccc1O2)c1ccc([N+](=O)[O-])cc1
inactive: SK-OV-3 > 100 µM | LOX IMVI > 100 µM | M14 > 100 µM | HOP-92 > 100 µM | SW-620 > 100 µM | SNB-19 > 100 µM | Hs-578T > 100 µM | MCF7 > 100 µM | K562 > 100 µM | SF-268 > 100 µM | SNB-75 > 100 µM | U-251 > 100 µM | NCI-H522 > 100 µM | ACHN > 100 µM | BT-549 > 100 µM | 786-0 > 100 µM | SK-MEL-5 > 100 µM | PC-3 > 100 µM

CCNC1=C(NC(=O)c2ccc(OC)cc2)C(=O)c2ccccc2C1=O
inactive: SK-OV-3 > 100 µM | M14 21.6 µM | HOP-92 > 100 µM | SW-620 44 µM | SNB-19 > 100 µM | Hs-578T > 100 µM | MCF7 51.8 µM | K562 > 100 µM | SF-268 > 100 µM | SNB-75 > 100 µM | U-251 > 100 µM | NCI-H522 30.7 µM | MOLT-4 36.1 µM | ACHN 88.3 µM | BT-549 63.1 µM | 786-0 > 100 µM | SK-MEL-5 34.7 µM | PC-3 32.8 µM

COc1cc(/C=C/c2ccc(C)cc2)cc(OC)c1OC
inactive: SK-OV-3 6.84 µM | LOX IMVI 6.14 µM | M14 3.56 µM | HOP-92 9.33 µM | SW-620 4.29 µM | SNB-19 4.21 µM | Hs-578T 2.56 µM | MCF7 3.46 µM | K562 3.1 µM | SF-268 5.37 µM | SNB-75 2.58 µM | U-251 3.78 µM | NCI-H522 2.25 µM | MOLT-4 3.91 µM | ACHN 6.31 µM | BT-549 5.68 µM | 786-0 3.87 µM | SK-MEL-5 3.85 µM | PC-3 2.67 µM

Oc1cnnc2nc3ccccc3n12
inactive: LOX IMVI 85.5 µM | M14 > 100 µM | HOP-92 > 100 µM | SW-620 > 100 µM | SNB-19 > 100 µM | Hs-578T > 100 µM | MCF7 > 100 µM | SF-268 > 100 µM | SNB-75 > 100 µM | U-251 > 100 µM | NCI-H522 > 100 µM | MOLT-4 > 100 µM | ACHN > 100 µM | BT-549 > 100 µM | 786-0 > 100 µM | SK-MEL-5 > 100 µM | A498 > 100 µM | PC-3 > 100 µM

NC(=O)c1cc(-c2ccc(-n3ccnc3)cc2)nnc1O
inactive: SK-OV-3 > 100 µM | M14 > 100 µM | HOP-92 > 100 µM | SW-620 > 100 µM | SNB-19 > 100 µM | Hs-578T > 100 µM | MCF7 67.6 µM | SF-268 > 100 µM | SNB-75 > 100 µM | U-251 > 100 µM | NCI-H522 > 100 µM | MOLT-4 > 100 µM | ACHN > 100 µM | BT-549 > 100 µM | 786-0 > 100 µM | SK-MEL-5 > 100 µM | A498 > 100 µM | PC-3 > 100 µM

COc1ccc(C2CC(c3ccc4ccccc4c3O)=NN2)cc1OC (stereo not given)
inactive: SK-OV-3 > 100 µM | M14 66.2 µM | HOP-92 > 100 µM | SW-620 39.7 µM | Hs-578T 76.7 µM | MCF7 32.7 µM | K562 21.7 µM | SF-268 47.5 µM | SNB-75 56.4 µM | U-251 44.1 µM | NCI-H522 40.1 µM | MOLT-4 24.7 µM | ACHN 54.5 µM | BT-549 23.5 µM | 786-0 37.8 µM | SK-MEL-5 58.5 µM | A498 52.6 µM | PC-3 33.9 µM

CCOC(=O)c1ncn(CCc2ccc(Cl)cc2)c1C
inactive: LOX IMVI > 100 µM | M14 26.3 µM | HOP-92 > 100 µM | SW-620 > 100 µM | SNB-19 > 100 µM | Hs-578T > 100 µM | MCF7 > 100 µM | K562 > 100 µM | SF-268 92.9 µM | U-251 > 100 µM | NCI-H522 34.4 µM | MOLT-4 > 100 µM | ACHN > 100 µM | BT-549 > 100 µM | 786-0 > 100 µM | SK-MEL-5 85.9 µM | A498 > 100 µM | PC-3 > 100 µM
